According to patent US20160177395A1, “BIOMARKERS FOR THE PREDICTION OF RENAL INJURY” (priority 2007, published 2016):
Several values for one entry are separate records, joined by “and”; a condition that tells them apart may be missing. Equal values may be shown once.

System: kidney tissues of treated or untreated rats
Experiment: Real-time qRT-PCR of marker transcripts in kidney tissue panel, discovery stage (Table 22)
Assay type: in vivo, rat
Set-up: AI502869_DB71_seg0 normalized Real Time PCR expression: unit not given beside the values
Conditions: rat kidney
Procedure, shortened: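 Rat kidney RNA, DNase-treated until PCR-negative, reverse transcribed with SuperscriptII; SYBR Green real-time PCR, 40 cycles, undetected samples set to Ct 41. Relative quantity from efficiency^-Ct (standard-curve efficiency), normalized to the geometric mean of four median-scaled housekeeping genes, then multiplied by a constant factor.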

[1] = day1, individual animals (F and M)
[2] = day5, individual animals (F and M)
[3] = day28, individual animals (F and M)

Substance: Gentamycin
- AW919147_DB71_seg0 normalized Real Time PCR expression (day1, individual animals): 1.72 and 0.72 (2×) and 0.76 and 1.1 and 0.99
- BI293562_DB71_seg2 normalized Real Time PCR expression (day1, individual animals): 0.59 and 0.94 and 0.93 and 0.55 and 0.41
- H31045_DB71_seg5 normalized Real Time PCR expression (day1, individual animals): 0.27 and 0.22 and 0.73 and 0.16 and 0.19 and 0.15
- H31799_DB71_seg23 normalized Real Time PCR expression (day1, individual animals): 1.19 and 0.88 and 0.93 and 1 and 1.2
- H31883_DB71_seg13 normalized Real Time PCR expression (day1, individual animals): 0.99 and 0.92 and 0.82 (2×) and 0.61 and 0.73
- H33998_DB71_seg19 normalized Real Time PCR [1]: 1.31 and 0.83 and 0.56 and 1.51 and 1.35 and 0.99
- MUSCYCG1R_DB81_seg15-17 normalized Real Time PCR [1]: 0.63 and 0.53 and 0.66 and 0.5 and 0.49 and 0.41
- RATLRFI_DB71_seg9 normalized Real Time PCR [1]: 0.98 and 1.54 and 1.09 and 2.74 and 1.72 and 0.27
- RATRAB13X_DB71_seg11-13 normalized Real Time PCR [1]: 1.16 and 0.7 and 0.77 and 2.79 and 1.14 and 1.03
- RNU24174_DB71_seg8 normalized Real Time PCR [1]: 0.47 (2×) and 0.5 and 0.74 and 0.37 and 0.26
- W41270_DB81_seg11 normalized Real Time PCR [1]: 1.24 and 0.67 and 1.19 and 0.46 and 0.68 and 0.57
- W64472_DB81_seg2 normalized Real Time PCR [1]: 0.63 and 0.45 and 0.61 and 0.4 and 0.54 (2×)
- W83813_DB81_seg27 normalized Real Time PCR [1]: 0.84 and 0.79 and 0.78 and 0.53 and 0.58 and 0.71
- AA686189_DB71_seg6 normalized Real Time PCR expression (day5, individual animals): 0.64 and 0.72 and 1.21 and 0.81 and 0.83 and 0.75
- AA799594_DB71_seg0 normalized Real Time PCR expression (day5, individual animals): 0.99 and 0.89 (2×) and 1.52 and 0.56 and 1.04
- AA964541_DB71_seg0 normalized Real Time PCR expression (day5, individual animals): 0.86 and 0.58 and 0.91 and 0.76 and 0.87
- AI045075_DB71_seg6 normalized Real Time PCR expression (day5, individual animals): 0.76 and 1.04 (2×) and 0.62 and 1.1 and 0
- AI454051_DB71_seg0 normalized Real Time PCR expression (day5, individual animals): 0.63 (2×) and 1.04 and 1.19 and 0.8 and 0.82
- AI502869_DB71_seg0 normalized Real Time PCR expression (day5, individual animals): 0.73 and 0.62 and 0.96 and 0.51 and 0.43 and 0.53
- AW919147_DB71_seg0 normalized Real Time PCR expression (day5, individual animals): 0.86 and 0.88 and 0.95 and 0.71 and 0.79 and 0.78
- BI293562_DB71_seg2 normalized Real Time PCR expression (day5, individual animals): 0.95 and 0.76 and 2.8 and 2.32 and 1.61 and 0.93
- H31045_DB71_seg5 normalized Real Time PCR expression (day5, individual animals): 0.52 and 1.01 and 0.4 and 1.57 and 1.47 and 0.33
- H31799_DB71_seg23 normalized Real Time PCR expression (day5, individual animals): 0.92 and 0.91 and 1.36 and 1.08 and 0.76 and 0.88
- H31883_DB71_seg13 normalized Real Time PCR expression (day5, individual animals): 0.73 and 0.55 and 0.91 and 1.01 and 0.7 and 0.65
- H33998_DB71_seg19 normalized Real Time PCR [2]: 1.9 and 1.5 and 2.19 and 1.91 and 0.83 and 1.16
- MUSCYCG1R_DB81_seg15-17 normalized Real Time PCR [2]: 1.51 (2×) and 1.61 and 0.95 and 0.79 and 1.02
- RATLRFI_DB71_seg9 normalized Real Time PCR [2]: 0.48 and 0.43 and 4.15 and 1.35 and 1.13 and 0.59
- RATRAB13X_DB71_seg11-13 normalized Real Time PCR [2]: 0.9 (2×) and 0.82 and 1.12 and 0.61 and 0.8
- RNU24174_DB71_seg8 normalized Real Time PCR [2]: 0.31 and 0.22 and 0.81 and 0.65 and 0.36 and 0.4
- W41270_DB81_seg11 normalized Real Time PCR [2]: 2.04 and 1.34 and 2.42 and 2.03 and 1.08 and 1.2
- W64472_DB81_seg2 normalized Real Time PCR [2]: 1.5 and 1.2 and 0.94 and 1.95 and 1.62 and 1.61
- W83813_DB81_seg27 normalized Real Time PCR [2]: 2.07 and 1.82 and 1.7 and 1.35 and 0.88 and 1.4
- AA686189_DB71_seg6 normalized Real Time PCR expression (day28, individual animals): 2.7 and 2.09 and 2.48 and 1.98 and 1.23 and 2.51
- AA799594_DB71_seg0 normalized Real Time PCR expression (day28, individual animals): 0.84 and 0.8 and 0.89 and 0.54 and 0.5 and 0.67
- AA964541_DB71_seg0 normalized Real Time PCR expression (day28, individual animals): 3.19 and 1.77 and 2.16 and 3.33 and 1.45 and 3.18
- AI045075_DB71_seg6 normalized Real Time PCR expression (day28, individual animals): 2.09 and 3.14 and 1.74 and 1.25 and 1.99 and 1.29
- AI454051_DB71_seg0 normalized Real Time PCR expression (day28, individual animals): 0.67 and 1 and 0.95 and 1.14 and 0.64 and 0.71
- AI502869_DB71_seg0 normalized Real Time PCR expression (day28, individual animals): 0.66 and 0.74 and 0.73 and 1.36 and 0.92 and 0.77
- AW919147_DB71_seg0 normalized Real Time PCR expression (day28, individual animals): 0.73 and 1.12 and 0.89 and 0.75 and 0.57 and 0.93
- BI293562_DB71_seg2 normalized Real Time PCR expression (day28, individual animals): 2.01 and 1.19 and 0.81 and 0.63 and 0.72 and 1.16
- H31045_DB71_seg5 normalized Real Time PCR expression (day28, individual animals): 0.79 and 0.84 and 0.67 and 1.11 and 4.65 and 0.45
- H31799_DB71_seg23 normalized Real Time PCR expression (day28, individual animals): 0.88 and 1.05 and 1.17 (2×) and 0.37
- H31883_DB71_seg13 normalized Real Time PCR expression (day28, individual animals): 0.88 and 0.98 and 0.96 and 1.05 and 0.64 and 0.8
- H33998_DB71_seg19 normalized Real Time PCR [3]: 0.4 (2×) and 0.7 and 0.56 and 0.49 and 0.42
- MUSCYCG1R_DB81_seg15-17 normalized Real Time PCR [3]: 0.69 and 0.62 and 0.57 and 0.65 and 0.56 and 0.54
- RATLRFI_DB71_seg9 normalized Real Time PCR [3]: 5.63 and 4.17 and 2.43 and 2.56 and 1.59 and 2.51
- RATRAB13X_DB71_seg11-13 normalized Real Time PCR [3]: 0.83 and 1.12 and 0.88 and 1.17 and 0.76 and 1.22
- RNU24174_DB71_seg8 normalized Real Time PCR [3]: 1.53 and 1.2 and 0.59 and 1.91 and 0.69 and 0.65
- W41270_DB81_seg11 normalized Real Time PCR [3]: 0.94 and 0.81 (2×) and 1.42 and 0.75 and 0.84
- W64472_DB81_seg2 normalized Real Time PCR [3]: 0.92 and 0.66 and 0.54 and 1.49 and 0.84 and 0.81
- W83813_DB81_seg27 normalized Real Time PCR [3]: 0.45 and 0.34 and 0.62 and 0.78 and 0.54 and 0.38
